# Measured values published in ChEMBL document CHEMBL2057064, “Activation of human RNase L by 2'- and 5'-O-methylphosphonate-modified oligoadenylates” (Bioorg Med Chem Lett, 2012).
# Calls of active or inactive are those of the source. No cut-off for these calls is given here.
# Experiments:
# [1] = target: T1, 2-5A-dependent ribonuclease (Homo sapiens) (UniProt Q05823); test: (§1) Activation of human RNase L expressed in Escherichia coli BL21 (DE3) cells assessed as RNA cleavage using Cy5-rC11-UU-C7-BHQ2 as substrate by FRET assay
# T1 sequence (whole entry): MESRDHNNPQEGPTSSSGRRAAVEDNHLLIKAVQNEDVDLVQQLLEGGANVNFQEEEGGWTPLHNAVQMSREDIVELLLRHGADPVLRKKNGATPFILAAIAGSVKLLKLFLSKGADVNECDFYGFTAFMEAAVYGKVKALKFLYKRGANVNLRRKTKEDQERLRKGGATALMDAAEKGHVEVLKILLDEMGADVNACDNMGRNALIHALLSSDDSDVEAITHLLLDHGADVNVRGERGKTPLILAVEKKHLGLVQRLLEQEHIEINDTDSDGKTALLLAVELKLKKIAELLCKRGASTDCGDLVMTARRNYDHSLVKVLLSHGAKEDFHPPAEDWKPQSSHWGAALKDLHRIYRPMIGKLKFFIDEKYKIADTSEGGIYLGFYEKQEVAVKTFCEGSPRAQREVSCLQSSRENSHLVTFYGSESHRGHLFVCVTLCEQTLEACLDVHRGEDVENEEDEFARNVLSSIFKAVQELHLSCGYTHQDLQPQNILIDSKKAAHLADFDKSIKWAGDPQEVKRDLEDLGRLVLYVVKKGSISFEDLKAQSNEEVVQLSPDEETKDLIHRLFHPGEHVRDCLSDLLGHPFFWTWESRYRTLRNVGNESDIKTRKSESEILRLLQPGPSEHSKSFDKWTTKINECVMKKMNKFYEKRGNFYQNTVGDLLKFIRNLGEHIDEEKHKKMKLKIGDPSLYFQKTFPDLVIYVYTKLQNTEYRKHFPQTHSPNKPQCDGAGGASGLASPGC
# [2] = target: T2, 2-5A-dependent ribonuclease (Homo sapiens, UniProt Q05823); test: as §1
# T2 sequence (Q05823 whole entry): T1 sequence (whole entry)
Structure (SMILES),Activity [1],EC50 [2] [nM]
Nc1ncnc2c1ncn2[C@@H]1O[C@H](COP(=O)(O)CO[C@@H]2[C@H](O)[C@@H](COP(=O)(O)O[C@@H]3[C@H](O)[C@@H](COP(=O)(O)O[C@@H]4[C@H](O)[C@@H](COP(=O)(O)O)O[C@H]4n4cnc5c(N)ncnc54)O[C@H]3n3cnc4c(N)ncnc43)O[C@H]2n2cnc3c(N)ncnc32)[C@@H](O)[C@H]1O,Active,200
Nc1ncnc2c1ncn2[C@@H]1O[C@H](COCP(=O)(O)O[C@@H]2[C@H](O)[C@@H](COP(=O)(O)O[C@@H]3[C@H](O)[C@@H](COP(=O)(O)O[C@@H]4[C@H](O)[C@@H](COP(=O)(O)O)O[C@H]4n4cnc5c(N)ncnc54)O[C@H]3n3cnc4c(N)ncnc43)O[C@H]2n2cnc3c(N)ncnc32)[C@@H](O)[C@@H]1O,Active,6.5
Nc1ncnc2c1ncn2[C@@H]1O[C@H](COP(=O)(O)O[C@@H]2[C@H](O)[C@@H](COP(=O)(O)O[C@@H]3[C@H](O)[C@@H](COP(=O)(O)CO[C@@H]4[C@@H](O)[C@@H](COP(=O)(O)O)O[C@H]4n4cnc5c(N)ncnc54)O[C@H]3n3cnc4c(N)ncnc43)O[C@H]2n2cnc3c(N)ncnc32)[C@@H](O)[C@H]1O,Active,300
Nc1ncnc2c1ncn2[C@@H]1O[C@H](COCP(=O)(O)O[C@@H]2[C@H](O)[C@@H](COP(=O)(O)O[C@@H]3[C@H](O)[C@@H](COP(=O)(O)O[C@@H]4[C@H](O)[C@@H](COP(=O)(O)O)O[C@H]4n4cnc5c(N)ncnc54)O[C@H]3n3cnc4c(N)ncnc43)O[C@H]2n2cnc3c(N)ncnc32)[C@H](O)[C@H]1O,Active,4.2
Nc1ncnc2c1ncn2[C@@H]1O[C@H](COP(=O)(O)O[C@@H]2[C@H](O)[C@@H](COP(=O)(O)O[C@@H]3[C@H](O)[C@@H](COP(=O)(O)O[C@H]4[C@H](O)[C@@H](COCP(=O)(O)O)O[C@H]4n4cnc5c(N)ncnc54)O[C@H]3n3cnc4c(N)ncnc43)O[C@H]2n2cnc3c(N)ncnc32)[C@@H](O)[C@H]1O,Active,1000
Nc1ncnc2c1ncn2[C@@H]1O[C@H](COP(=O)(O)CO[C@H]2[C@H](O)[C@@H](COP(=O)(O)O[C@@H]3[C@H](O)[C@@H](COP(=O)(O)O[C@@H]4[C@H](O)[C@@H](COP(=O)(O)O)O[C@H]4n4cnc5c(N)ncnc54)O[C@H]3n3cnc4c(N)ncnc43)O[C@H]2n2cnc3c(N)ncnc32)[C@@H](O)[C@H]1O,Active,1000
Nc1ncnc2c1ncn2[C@@H]1O[C@H](COP(=O)(O)O[C@@H]2[C@H](O)[C@@H](COCP(=O)(O)O[C@@H]3[C@H](O)[C@@H](COP(=O)(O)O[C@@H]4[C@H](O)[C@@H](COP(=O)(O)O)O[C@H]4n4cnc5c(N)ncnc54)O[C@H]3n3cnc4c(N)ncnc43)O[C@H]2n2cnc3c(N)ncnc32)[C@@H](O)[C@H]1O,inactive,300
Nc1ncnc2c1ncn2[C@@H]1O[C@H](COP(=O)(O)O[C@@H]2[C@H](O)[C@@H](COP(=O)(O)O[C@@H]3[C@H](O)[C@@H](COP(=O)(O)O[C@@H]4[C@@H](O)[C@@H](COCP(=O)(O)O)O[C@H]4n4cnc5c(N)ncnc54)O[C@H]3n3cnc4c(N)ncnc43)O[C@H]2n2cnc3c(N)ncnc32)[C@@H](O)[C@H]1O,Active,300
Nc1ncnc2c1ncn2[C@@H]1O[C@H](COCP(=O)(O)O[C@@H]2[C@H](O)[C@@H](COP(=O)(O)O[C@@H]3[C@H](O)[C@@H](COP(=O)(O)O[C@@H]4[C@H](O)[C@@H](COP(=O)(O)O)O[C@H]4n4cnc5c(N)ncnc54)O[C@H]3n3cnc4c(N)ncnc43)O[C@H]2n2cnc3c(N)ncnc32)[C@@H](O)[C@H]1O,Active,15
Nc1ncnc2c1ncn2[C@@H]1O[C@H](COP(=O)(O)O[C@@H]2[C@H](O)[C@@H](COP(=O)(O)O[C@@H]3[C@H](O)[C@@H](COCP(=O)(O)O[C@@H]4[C@H](O)[C@@H](COP(=O)(O)O)O[C@H]4n4cnc5c(N)ncnc54)O[C@H]3n3cnc4c(N)ncnc43)O[C@H]2n2cnc3c(N)ncnc32)[C@@H](O)[C@H]1O,inactive,> 1000
